# Target: T1, Alpha carbonic anhydrase (Stylophora pistillata, UniProt B5SU02)
# T1 sequence (B5SU02 whole entry): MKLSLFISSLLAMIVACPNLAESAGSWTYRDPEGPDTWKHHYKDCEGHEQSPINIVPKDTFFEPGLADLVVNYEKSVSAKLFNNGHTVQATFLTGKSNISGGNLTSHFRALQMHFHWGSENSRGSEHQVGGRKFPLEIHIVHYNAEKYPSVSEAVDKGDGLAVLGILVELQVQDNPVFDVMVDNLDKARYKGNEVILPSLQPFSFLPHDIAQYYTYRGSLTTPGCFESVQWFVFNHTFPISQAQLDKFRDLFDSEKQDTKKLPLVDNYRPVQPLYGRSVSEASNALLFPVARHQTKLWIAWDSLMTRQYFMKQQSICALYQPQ
# Description: Inhibition of cloned Stylophora pistillata alpha-CA expressed in human HEK293 cells by stopped-flow CO2 assay
row,Structure (SMILES),Ki [nM]
1,Nc1nnc(S(N)(=O)=O)s1,105
2,Cn1nc(S(N)(=O)=O)sc1=N,91.9
3,Nc1ccc(S(N)(=O)=O)cc1Cl,87.5
4,Nc1ccc(S(N)(=O)=O)cc1 [SULFANILAMIDE],364
5,CC1(C)O[C@@H]2[C@@H](CO[C@@]3(COS(N)(=O)=O)OC(C)(C)O[C@@H]23)O1 [TOPIRAMATE],29.1
6,Nc1nccc(Nc2ccc(S(N)(=O)=O)cc2)n1,25.4
7,Cc1ccc(S(N)(=O)=O)cc1 [P-TOLUENESULFONAMIDE],614
8,CCN[C@H]1CN(CCCOC)S(=O)(=O)c2sc(S(N)(=O)=O)cc21 [BRINZOLAMIDE],48.2
9,Nc1ccc(S(=O)(=O)NCCc2ccc(S(N)(=O)=O)cc2)cc1,19.7
10,Nc1ccc(S(N)(=O)=O)cc1Br,104
11,NCCc1ccc(S(N)(=O)=O)cc1,94.3
12,NS(=O)(=O)c1ccc(C(=O)O)cc1 [CARZENIDE],435
13,NS(=O)(=O)c1ccc(S(=O)(=O)Nc2cccc3c(Cl)c[nH]c23)cc1,163
14,Nc1cc(Cl)c(S(N)(=O)=O)cc1S(N)(=O)=O,295
15,NNc1ccccc1S(N)(=O)=O,2510
16,Nc1ccc(S(=O)(=O)Nc2nnc(S(N)(=O)=O)s2)cc1,27.6
17,Nc1ccc(S(N)(=O)=O)cc1I,88.3
18,Cc1ccc(-c2cc(C(F)(F)F)nn2-c2ccc(S(N)(=O)=O)cc2)cc1 [CELECOXIB],34.2
19,NS(=O)(=O)c1nnc(NS(=O)(=O)c2ccccc2)s1 [BENZOLAMIDE],20.4
20,Nc1ccc(S(=O)(=O)NCc2ccc(S(N)(=O)=O)cc2)cc1,29.8
21,NS(=O)(=O)c1ccc(CO)cc1,768
22,NS(=O)(=O)c1ccc(CCO)cc1,770
23,Nc1ccc(S(N)(=O)=O)cc1F,75.1
24,"Nc1cc(C(F)(F)F)c(S(N)(=O)=O)cc1S(N)(=O)=O [2,4-DISULFAMYLTRIFLUOROMETHYLANILINE]",367
25,NCc1ccc(S(N)(=O)=O)cc1 [MAFENIDE],82.5
26,O=C1NS(=O)(=O)c2ccccc21 [SACCHARIN],40.3
